# Read-outs that look alike come from different tables or passages of the source.
# Columns and labels:
# 476 purified kinases [1] = target: 476 purified kinases (Homo sapiens, UniProt Q9Y3S1)
# Description: (§1) In vitro kinase inhibition assays were performed by SelectScreen Services (Thermo Fisher Scientific) using either Z’-LYTE (mTOR, Src, Csk, EGFR, HER2 and HGK), Adapta (LRRK2) or LanthaScreen (DDR2) assay format (standardized protocols can be accessed on the SelectScreen website: https://www.thermofisher.com/us/en/home/products-and-services/services/custom-services/screening-and-profiling-services/selectscreen-profiling-service/selectscreen-kinase-profiling-service.html. When indicated, recombinant FKBP12 protein was added to the assay mixture to a final concentration of 10 µM.
# 476 purified kinases [2] = target: 476 purified kinases (Homo sapiens, UniProt Q86V86); conditions: ZLYTE
# Description: as §1
# 476 purified kinases [3] = target: 476 purified kinases (Homo sapiens, UniProt Q15835)
# Description: as §1
# 476 purified kinases [4] = target: 476 purified kinases (Homo sapiens, UniProt O00238)
# Description: as §1
# 476 purified kinases [5] = target: 476 purified kinases (Homo sapiens, UniProt O95819); conditions: ZLYTE
# Description: as §1
# 476 purified kinases [6] = target: 476 purified kinases (Homo sapiens, UniProt P06493); conditions: ZLYTE
# Description: as §1
# 476 purified kinases [7] = target: 476 purified kinases (Homo sapiens, UniProt Q99755)
# 476 purified kinases (Homo sapiens, UniProt Q99755), sequence (Q99755 whole entry): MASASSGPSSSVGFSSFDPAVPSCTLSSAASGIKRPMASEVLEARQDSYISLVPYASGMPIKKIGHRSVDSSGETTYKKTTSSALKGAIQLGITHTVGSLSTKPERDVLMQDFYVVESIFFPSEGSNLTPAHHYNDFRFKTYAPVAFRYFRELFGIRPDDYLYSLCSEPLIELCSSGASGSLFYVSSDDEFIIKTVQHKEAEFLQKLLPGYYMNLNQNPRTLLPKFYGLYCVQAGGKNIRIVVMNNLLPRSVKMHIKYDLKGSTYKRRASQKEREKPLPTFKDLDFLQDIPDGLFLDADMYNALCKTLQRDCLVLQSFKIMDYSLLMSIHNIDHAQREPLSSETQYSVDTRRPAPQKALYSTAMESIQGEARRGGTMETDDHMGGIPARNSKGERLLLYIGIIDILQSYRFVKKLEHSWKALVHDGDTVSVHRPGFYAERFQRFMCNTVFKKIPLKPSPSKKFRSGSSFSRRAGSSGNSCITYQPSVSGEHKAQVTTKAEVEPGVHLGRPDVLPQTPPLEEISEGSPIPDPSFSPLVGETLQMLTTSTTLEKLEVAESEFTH
# Description: as §1
# 476 purified kinases [8] = target: 476 purified kinases (Homo sapiens, UniProt Q9H3Y6); conditions: ZLYTE
# Description: as §1
# 476 purified kinases [9] = target: 476 purified kinases (Homo sapiens, UniProt Q9H4B4); conditions: ZLYTE
# 476 purified kinases (Homo sapiens, UniProt Q9H4B4), sequence (Q9H4B4 whole entry): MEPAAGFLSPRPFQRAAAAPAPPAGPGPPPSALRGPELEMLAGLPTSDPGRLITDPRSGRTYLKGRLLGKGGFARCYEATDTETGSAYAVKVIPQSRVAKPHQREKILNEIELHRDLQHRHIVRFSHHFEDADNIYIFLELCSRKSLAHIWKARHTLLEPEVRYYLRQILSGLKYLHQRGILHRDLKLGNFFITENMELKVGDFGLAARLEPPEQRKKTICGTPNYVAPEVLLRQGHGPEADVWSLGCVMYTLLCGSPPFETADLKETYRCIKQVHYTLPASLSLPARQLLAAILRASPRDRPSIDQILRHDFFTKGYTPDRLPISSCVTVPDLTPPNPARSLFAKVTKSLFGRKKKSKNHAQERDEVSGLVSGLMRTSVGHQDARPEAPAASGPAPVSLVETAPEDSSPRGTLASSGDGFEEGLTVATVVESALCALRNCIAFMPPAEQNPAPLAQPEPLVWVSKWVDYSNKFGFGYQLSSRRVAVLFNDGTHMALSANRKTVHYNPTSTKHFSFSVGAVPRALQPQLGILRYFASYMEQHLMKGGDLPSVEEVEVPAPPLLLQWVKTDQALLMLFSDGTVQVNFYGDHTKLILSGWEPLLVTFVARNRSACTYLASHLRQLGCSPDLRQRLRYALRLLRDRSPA
# Description: as §1
# 476 purified kinases [10] = target: 476 purified kinases (Homo sapiens, UniProt P37023)
# Description: as §1
# 476 purified kinases [11] = target: 476 purified kinases (Homo sapiens, UniProt Q99558)
# 476 purified kinases (Homo sapiens, UniProt Q99558), sequence (Q99558 whole entry): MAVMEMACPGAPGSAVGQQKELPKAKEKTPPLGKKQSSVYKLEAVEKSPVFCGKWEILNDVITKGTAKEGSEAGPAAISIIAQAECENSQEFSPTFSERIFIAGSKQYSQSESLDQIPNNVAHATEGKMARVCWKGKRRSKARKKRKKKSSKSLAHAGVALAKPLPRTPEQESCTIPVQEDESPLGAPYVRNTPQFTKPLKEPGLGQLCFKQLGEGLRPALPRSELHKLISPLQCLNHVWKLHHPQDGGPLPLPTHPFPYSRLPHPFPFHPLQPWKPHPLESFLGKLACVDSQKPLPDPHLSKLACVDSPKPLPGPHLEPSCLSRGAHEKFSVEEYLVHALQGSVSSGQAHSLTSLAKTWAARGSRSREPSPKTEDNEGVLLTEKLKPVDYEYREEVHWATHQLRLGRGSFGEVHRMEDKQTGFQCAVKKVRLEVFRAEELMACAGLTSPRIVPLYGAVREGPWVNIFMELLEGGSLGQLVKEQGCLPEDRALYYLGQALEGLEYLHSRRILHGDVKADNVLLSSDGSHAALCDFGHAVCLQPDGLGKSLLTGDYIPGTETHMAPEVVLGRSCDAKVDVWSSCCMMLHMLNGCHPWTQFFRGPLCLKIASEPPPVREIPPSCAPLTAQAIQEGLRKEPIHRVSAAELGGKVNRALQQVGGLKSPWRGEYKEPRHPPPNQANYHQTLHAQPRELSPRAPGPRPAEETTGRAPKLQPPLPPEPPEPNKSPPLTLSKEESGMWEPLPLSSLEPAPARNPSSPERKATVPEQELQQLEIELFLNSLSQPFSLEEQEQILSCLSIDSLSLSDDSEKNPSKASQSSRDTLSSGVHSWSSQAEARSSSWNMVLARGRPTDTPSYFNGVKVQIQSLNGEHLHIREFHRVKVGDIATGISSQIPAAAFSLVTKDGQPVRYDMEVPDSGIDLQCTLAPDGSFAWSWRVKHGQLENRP
# Description: as §1
# 476 purified kinases [12] = target: 476 purified kinases (Homo sapiens, UniProt Q96BR1); conditions: ZLYTE
# Description: as §1
# 476 purified kinases [13] = target: 476 purified kinases (Homo sapiens, UniProt P11802); conditions: Adapta
# 476 purified kinases (Homo sapiens, UniProt P11802), sequence (P11802 whole entry): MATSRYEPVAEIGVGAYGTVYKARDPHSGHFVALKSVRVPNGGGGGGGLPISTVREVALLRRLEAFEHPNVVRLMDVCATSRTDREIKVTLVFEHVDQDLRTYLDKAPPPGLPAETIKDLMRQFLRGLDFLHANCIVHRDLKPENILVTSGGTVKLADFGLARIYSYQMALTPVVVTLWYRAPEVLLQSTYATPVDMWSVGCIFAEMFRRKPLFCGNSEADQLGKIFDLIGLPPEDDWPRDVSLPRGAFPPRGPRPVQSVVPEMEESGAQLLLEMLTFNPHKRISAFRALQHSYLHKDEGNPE
# Description: as §1
# 476 purified kinases [14] = target: 476 purified kinases (Homo sapiens, UniProt P37173)
# Description: as §1
# 476 purified kinases [15] = target: 476 purified kinases (Homo sapiens, UniProt O00141); conditions: ZLYTE
# Description: as §1
# 476 purified kinases [16] = target: 476 purified kinases (Homo sapiens, UniProt P49761); conditions: ZLYTE
# 476 purified kinases (Homo sapiens, UniProt P49761), sequence (P49761 whole entry): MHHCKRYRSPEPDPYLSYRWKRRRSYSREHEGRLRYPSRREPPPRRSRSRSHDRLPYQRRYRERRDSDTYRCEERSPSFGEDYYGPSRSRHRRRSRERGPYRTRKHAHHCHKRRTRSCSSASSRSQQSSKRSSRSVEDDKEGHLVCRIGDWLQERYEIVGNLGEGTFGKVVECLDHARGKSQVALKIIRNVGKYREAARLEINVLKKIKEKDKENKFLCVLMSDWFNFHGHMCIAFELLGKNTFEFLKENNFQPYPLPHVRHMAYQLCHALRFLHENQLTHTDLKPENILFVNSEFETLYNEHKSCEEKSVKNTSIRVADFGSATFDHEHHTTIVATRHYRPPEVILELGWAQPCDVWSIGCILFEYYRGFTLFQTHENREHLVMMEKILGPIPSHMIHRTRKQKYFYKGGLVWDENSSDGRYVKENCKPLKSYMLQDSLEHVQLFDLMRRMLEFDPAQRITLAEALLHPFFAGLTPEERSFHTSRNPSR
# Description: as §1
# 476 purified kinases [17] = target: 476 purified kinases (Homo sapiens, UniProt O75747)
# Description: as §1
# 476 purified kinases [18] = target: 476 purified kinases (Homo sapiens, UniProt O75716)
# Description: as §1
# 476 purified kinases [19] = target: 476 purified kinases (Homo sapiens, UniProt Q9UEW8)
# Description: as §1
# 476 purified kinases [20] = target: 476 purified kinases (Homo sapiens, UniProt O00311)
# Description: as §1
# 476 purified kinases [21] = target: 476 purified kinases (Homo sapiens, UniProt Q96NX5); conditions: ZLYTE
# Description: as §1
# 476 purified kinases [22] = target: T1, 476 purified kinases (Homo sapiens, UniProt P52564); conditions: for MAP2K6 (MKK6) (kinase profiling): ZLYTE
# T1 sequence (P52564 1-334): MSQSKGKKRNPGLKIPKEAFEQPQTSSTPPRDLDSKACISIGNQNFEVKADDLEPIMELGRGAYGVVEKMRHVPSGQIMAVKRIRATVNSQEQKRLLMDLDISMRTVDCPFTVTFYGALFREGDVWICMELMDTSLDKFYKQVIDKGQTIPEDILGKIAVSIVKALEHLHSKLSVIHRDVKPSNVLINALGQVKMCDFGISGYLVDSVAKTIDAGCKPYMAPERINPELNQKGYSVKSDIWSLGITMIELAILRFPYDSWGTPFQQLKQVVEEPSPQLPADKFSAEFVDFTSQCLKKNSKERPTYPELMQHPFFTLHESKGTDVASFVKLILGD
# Description: as §1
# 476 purified kinases [23] = target: 476 purified kinases (Homo sapiens, UniProt Q16513)
# Description: as §1
# 476 purified kinases [24] = target: 476 purified kinases (Homo sapiens, UniProt Q6DT37); conditions: ZLYTE
# Description: as §1
# 476 purified kinases [25] = target: 476 purified kinases (Homo sapiens, UniProt P06241); conditions: ZLYTE
# Description: as §1
# 476 purified kinases [26] = target: 476 purified kinases (Homo sapiens, UniProt P57058)
# Description: as §1
# 476 purified kinases [27] = target: 476 purified kinases (Homo sapiens, UniProt Q15139); conditions: ZLYTE
# Description: as §1
# 476 purified kinases [28] = target: 476 purified kinases (Homo sapiens, UniProt P14616); conditions: ZLYTE
# Description: as §1
# 476 purified kinases [29] = target: 476 purified kinases (Homo sapiens, UniProt Q32MK0)
# 476 purified kinases (Homo sapiens, UniProt Q32MK0), sequence (Q32MK0 whole entry): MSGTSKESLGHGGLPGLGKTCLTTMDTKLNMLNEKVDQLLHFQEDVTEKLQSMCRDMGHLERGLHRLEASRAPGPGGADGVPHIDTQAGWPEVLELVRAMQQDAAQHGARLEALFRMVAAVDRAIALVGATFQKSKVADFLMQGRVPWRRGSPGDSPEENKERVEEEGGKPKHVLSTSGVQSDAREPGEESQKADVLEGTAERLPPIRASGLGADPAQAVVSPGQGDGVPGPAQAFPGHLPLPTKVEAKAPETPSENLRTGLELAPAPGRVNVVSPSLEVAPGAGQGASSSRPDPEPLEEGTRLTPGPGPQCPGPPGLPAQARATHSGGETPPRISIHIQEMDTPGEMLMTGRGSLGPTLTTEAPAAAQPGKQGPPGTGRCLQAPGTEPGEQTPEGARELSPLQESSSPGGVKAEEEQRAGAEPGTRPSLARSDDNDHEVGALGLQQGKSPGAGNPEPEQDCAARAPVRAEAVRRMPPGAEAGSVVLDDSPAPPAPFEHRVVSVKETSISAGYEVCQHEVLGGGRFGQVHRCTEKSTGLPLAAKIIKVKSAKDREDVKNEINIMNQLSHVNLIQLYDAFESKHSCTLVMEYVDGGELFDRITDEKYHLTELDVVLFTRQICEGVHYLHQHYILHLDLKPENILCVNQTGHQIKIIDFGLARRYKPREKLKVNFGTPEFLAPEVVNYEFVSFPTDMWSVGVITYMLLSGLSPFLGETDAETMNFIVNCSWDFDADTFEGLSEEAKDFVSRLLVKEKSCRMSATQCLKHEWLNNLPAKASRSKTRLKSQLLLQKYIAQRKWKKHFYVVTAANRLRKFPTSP
# Description: as §1
# 476 purified kinases [30] = target: 476 purified kinases (Homo sapiens, UniProt Q9NRM7)
# Description: as §1
# 476 purified kinases [31] = target: 476 purified kinases (Homo sapiens, UniProt Q86UX6)
# Description: as §1
# 476 purified kinases (Homo sapiens, UniProt Q15835), sequence (Q15835 whole entry): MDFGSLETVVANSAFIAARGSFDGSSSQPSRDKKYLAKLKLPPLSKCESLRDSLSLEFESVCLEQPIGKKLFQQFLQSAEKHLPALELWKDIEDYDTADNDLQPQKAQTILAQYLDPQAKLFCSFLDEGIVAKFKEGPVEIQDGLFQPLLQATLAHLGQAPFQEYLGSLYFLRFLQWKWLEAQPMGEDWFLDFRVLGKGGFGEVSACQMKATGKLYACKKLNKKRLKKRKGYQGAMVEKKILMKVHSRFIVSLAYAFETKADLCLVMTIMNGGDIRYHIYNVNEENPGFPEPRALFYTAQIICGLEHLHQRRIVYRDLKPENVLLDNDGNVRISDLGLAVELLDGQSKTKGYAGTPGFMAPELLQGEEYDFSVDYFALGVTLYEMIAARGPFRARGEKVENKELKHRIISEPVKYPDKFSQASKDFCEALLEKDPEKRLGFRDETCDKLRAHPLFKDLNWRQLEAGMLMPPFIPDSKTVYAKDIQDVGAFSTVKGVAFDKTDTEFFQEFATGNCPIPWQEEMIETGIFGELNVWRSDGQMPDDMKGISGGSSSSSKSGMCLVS
# 476 purified kinases (Homo sapiens, UniProt O00238), sequence (O00238 14-502): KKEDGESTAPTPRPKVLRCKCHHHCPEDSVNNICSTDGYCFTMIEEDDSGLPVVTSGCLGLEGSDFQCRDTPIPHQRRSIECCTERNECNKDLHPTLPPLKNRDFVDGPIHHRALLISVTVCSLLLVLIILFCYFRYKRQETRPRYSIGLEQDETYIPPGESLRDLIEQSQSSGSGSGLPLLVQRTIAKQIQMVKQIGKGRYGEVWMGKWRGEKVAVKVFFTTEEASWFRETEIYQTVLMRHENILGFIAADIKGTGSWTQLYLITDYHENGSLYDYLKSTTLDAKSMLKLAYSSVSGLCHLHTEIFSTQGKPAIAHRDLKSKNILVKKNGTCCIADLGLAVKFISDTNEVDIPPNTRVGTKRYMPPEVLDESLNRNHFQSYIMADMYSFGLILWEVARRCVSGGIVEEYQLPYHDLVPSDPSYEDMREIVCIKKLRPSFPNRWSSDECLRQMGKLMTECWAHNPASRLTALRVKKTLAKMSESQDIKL
smiles,measurement,setting,value
Cc1nc(Nc2ncc(C(=O)Nc3c(C)cccc3Cl)s2)cc(N2CCN(CCO)CC2)n1 [Dasatinib],WNK2 (LanthaScreen Binding),476 purified kinases [1]; 10 nM compound,0
same,WNK2 (LanthaScreen Binding),476 purified kinases [1]; 10 nM compound + 10 µM FKBP12,-1
same,PIM3 (kinase profiling),476 purified kinases [2]; 10 nM,4
same,PIM3 (kinase profiling),476 purified kinases [2]; 10 nM + 10 µM FKBP12,-6
same,GRK1 (LanthaScreen Binding),476 purified kinases [3]; 10 nM compound,2
same,GRK1 (LanthaScreen Binding),476 purified kinases [3]; 10 nM compound + 10 µM FKBP12,7
same,BMPR1B (ALK6) (LanthaScreen Binding),476 purified kinases [4]; 10 nM compound,7
same,BMPR1B (ALK6) (LanthaScreen Binding),476 purified kinases [4]; 10 nM compound + 10 µM FKBP12,-9
same,MAP4K4 (HGK) (kinase profiling),476 purified kinases [5]; 10 nM,10
same,MAP4K4 (HGK) (kinase profiling),476 purified kinases [5]; 10 nM + 10 µM FKBP12,12
same,CDK1/cyclin B (kinase profiling),476 purified kinases [6]; 10 nM,3
same,CDK1/cyclin B (kinase profiling),476 purified kinases [6]; 10 nM + 10 µM FKBP12,3
same,PIP5K1A (Adapta),476 purified kinases [7]; 10 nM compound,-11
same,PIP5K1A (Adapta),476 purified kinases [7]; 10 nM compound + 10 µM FKBP12,-9
same,SRMS (Srm) (kinase profiling),476 purified kinases [8]; 10 nM,87
same,SRMS (Srm) (kinase profiling),476 purified kinases [8]; 10 nM + 10 µM FKBP12,86
same,PLK3 (kinase profiling),476 purified kinases [9]; 10 nM,-4
same,PLK3 (kinase profiling),476 purified kinases [9]; 10 nM + 10 µM FKBP12,-21
same,ACVRL1 (ALK1) (LanthaScreen Binding),476 purified kinases [10]; 10 nM compound,16
same,ACVRL1 (ALK1) (LanthaScreen Binding),476 purified kinases [10]; 10 nM compound + 10 µM FKBP12,0
same,MAP3K14 (NIK) (LanthaScreen Binding),476 purified kinases [11]; 10 nM compound,-2
same,MAP3K14 (NIK) (LanthaScreen Binding),476 purified kinases [11]; 10 nM compound + 10 µM FKBP12,2
same,SGKL (SGK3) (kinase profiling),476 purified kinases [12]; 10 nM,7
same,SGKL (SGK3) (kinase profiling),476 purified kinases [12]; 10 nM + 10 µM FKBP12,6
same,CDK4/cyclin D1 (kinase profiling),476 purified kinases [13]; 10 nM,6
same,CDK4/cyclin D3 (kinase profiling),476 purified kinases [13]; 10 nM,9
same,CDK4/cyclin D1 (kinase profiling),476 purified kinases [13]; 10 nM + 10 µM FKBP12,-10
same,CDK4/cyclin D3 (kinase profiling),476 purified kinases [13]; 10 nM + 10 µM FKBP12,12
same,TGFBR2 (LanthaScreen Binding),476 purified kinases [14]; 10 nM compound,-5
same,TGFBR2 (LanthaScreen Binding),476 purified kinases [14]; 10 nM compound + 10 µM FKBP12,-5
same,SGK (SGK1) (kinase profiling),476 purified kinases [15]; 10 nM,2
same,SGK (SGK1) (kinase profiling),476 purified kinases [15]; 10 nM + 10 µM FKBP12,2
same,CLK3 (kinase profiling),476 purified kinases [16]; 10 nM,6
same,CLK3 (kinase profiling),476 purified kinases [16]; 10 nM + 10 µM FKBP12,11
same,PIK3C2G (PI3K-C2 gamma) (Adapta),476 purified kinases [17]; 10 nM compound,3
same,PIK3C2G (PI3K-C2 gamma) (Adapta),476 purified kinases [17]; 10 nM compound + 10 µM FKBP12,-4
same,STK16 (PKL12) (LanthaScreen Binding),476 purified kinases [18]; 10 nM compound,-1
same,STK16 (PKL12) (LanthaScreen Binding),476 purified kinases [18]; 10 nM compound + 10 µM FKBP12,-1
same,STK39 (STLK3) (LanthaScreen Binding),476 purified kinases [19]; 10 nM compound,4
same,STK39 (STLK3) (LanthaScreen Binding),476 purified kinases [19]; 10 nM compound + 10 µM FKBP12,-5
same,CDC7/DBF4 (LanthaScreen Binding),476 purified kinases [20]; 10 nM compound,7
same,CDC7/DBF4 (LanthaScreen Binding),476 purified kinases [20]; 10 nM compound + 10 µM FKBP12,16
same,CAMK1G (CAMKI gamma) (kinase profiling),476 purified kinases [21]; 10 nM,1
same,CAMK1G (CAMKI gamma) (kinase profiling),476 purified kinases [21]; 10 nM + 10 µM FKBP12,-5
same,MAP2K6 (MKK6) (LanthaScreen Binding),476 purified kinases [22]; 10 nM compound,-3
same,MAP2K6 (MKK6) (LanthaScreen Binding),476 purified kinases [22]; 10 nM compound + 10 µM FKBP12,8
same,MAP2K6 (MKK6) (kinase profiling),476 purified kinases [22]; 10 nM,9
same,MAP2K6 (MKK6) (kinase profiling),476 purified kinases [22]; 10 nM + 10 µM FKBP12,8
same,PKN2 (PRK2) (LanthaScreen Binding),476 purified kinases [23]; 10 nM compound,4
same,PKN2 (PRK2) (LanthaScreen Binding),476 purified kinases [23]; 10 nM compound + 10 µM FKBP12,5
same,CDC42 BPG (MRCKG) (kinase profiling),476 purified kinases [24]; 10 nM,7
same,CDC42 BPG (MRCKG) (kinase profiling),476 purified kinases [24]; 10 nM + 10 µM FKBP12,-1
same,FYN (kinase profiling),476 purified kinases [25]; 10 nM,100
same,FYN (kinase profiling),476 purified kinases [25]; 10 nM + 10 µM FKBP12,101
same,HUNK (LanthaScreen Binding),476 purified kinases [26]; 10 nM compound,0
same,HUNK (LanthaScreen Binding),476 purified kinases [26]; 10 nM compound + 10 µM FKBP12,5
same,PRKD1 (PKC mu) (kinase profiling),476 purified kinases [27]; 10 nM,10
same,PRKD1 (PKC mu) (kinase profiling),476 purified kinases [27]; 10 nM + 10 µM FKBP12,12
same,INSRR (IRR) (kinase profiling),476 purified kinases [28]; 10 nM,4
same,INSRR (IRR) (kinase profiling),476 purified kinases [28]; 10 nM + 10 µM FKBP12,21
same,MLCK (MLCK2) (LanthaScreen Binding),476 purified kinases [29]; 10 nM compound,-3
same,MLCK (MLCK2) (LanthaScreen Binding),476 purified kinases [29]; 10 nM compound + 10 µM FKBP12,3
same,LATS2 (LanthaScreen Binding),476 purified kinases [30]; 10 nM compound,3
same,LATS2 (LanthaScreen Binding),476 purified kinases [30]; 10 nM compound + 10 µM FKBP12,2
same,STK32C (YANK3) (LanthaScreen Binding),476 purified kinases [31]; 10 nM compound,-1
same,STK32C (YANK3) (LanthaScreen Binding),476 purified kinases [31]; 10 nM compound + 10 µM FKBP12,-2

# Reference: publication PMC9492542, “Brain-restricted mTOR inhibition with binary pharmacology” (Nature, 2022)
